Data as given in ChEMBL document CHEMBL1140644, “New modifications to the area of pyrazole-naphthyl urea based p38 MAP kinase inhibitors that bind to the adenine/ATP site” (Bioorg Med Chem Lett, 2007).
Active and inactive are the calls of the source. No cut-off for these calls is given here.

Key:
[1] = tested on: THP-1; assay: Inhibition of LPS-induced TNFalpha production in THP1 cells; assay type: functional, cell-based; details: Homo sapiens
[2] = tested on: Mus musculus; assay: Inhibition of LPS-induced TNFalpha production in mouse at 3 mg/kg after 1 hr; assay type: functional
[3] = species: Homo sapiens; assay: Protein binding in human plasma by equilibrium dialysis; details: read-out: PPB
[4] = tested on: Blood; assay: Inhibition of LPS-induced TNFalpha production in human whole blood; assay type: functional, tissue-based
[5] = tested on: Mus musculus; assay: Inhibition of LPS-induced TNFalpha production in mouse at 10 mg/kg after 1 hr; assay type: functional
[6] = biological target: Proto-oncogene tyrosine-protein kinase Src (Homo sapiens, UniProt P12931); assay: Inhibition of Src
[7] = biological target: Tyrosine-protein kinase Lyn (Homo sapiens, UniProt P07948); assay: Inhibition of Lyn
[8] = biological target: Tyrosine-protein kinase ABL1 (Homo sapiens, UniProt P00519); assay: Inhibition of Abl
[9] = biological target: Mitogen-activated protein kinase 9 (Homo sapiens, UniProt P45984); assay: Inhibition of Jnk2
[10] = Lipophilicity, log D at pH 7.4; assay type: physicochemical; details: buffer
[11] = biological target: RAF proto-oncogene serine/threonine-protein kinase (Homo sapiens, UniProt P04049); assay: Inhibition of cRaf
Sequence of RAF proto-oncogene serine/threonine-protein kinase (P04049 whole entry): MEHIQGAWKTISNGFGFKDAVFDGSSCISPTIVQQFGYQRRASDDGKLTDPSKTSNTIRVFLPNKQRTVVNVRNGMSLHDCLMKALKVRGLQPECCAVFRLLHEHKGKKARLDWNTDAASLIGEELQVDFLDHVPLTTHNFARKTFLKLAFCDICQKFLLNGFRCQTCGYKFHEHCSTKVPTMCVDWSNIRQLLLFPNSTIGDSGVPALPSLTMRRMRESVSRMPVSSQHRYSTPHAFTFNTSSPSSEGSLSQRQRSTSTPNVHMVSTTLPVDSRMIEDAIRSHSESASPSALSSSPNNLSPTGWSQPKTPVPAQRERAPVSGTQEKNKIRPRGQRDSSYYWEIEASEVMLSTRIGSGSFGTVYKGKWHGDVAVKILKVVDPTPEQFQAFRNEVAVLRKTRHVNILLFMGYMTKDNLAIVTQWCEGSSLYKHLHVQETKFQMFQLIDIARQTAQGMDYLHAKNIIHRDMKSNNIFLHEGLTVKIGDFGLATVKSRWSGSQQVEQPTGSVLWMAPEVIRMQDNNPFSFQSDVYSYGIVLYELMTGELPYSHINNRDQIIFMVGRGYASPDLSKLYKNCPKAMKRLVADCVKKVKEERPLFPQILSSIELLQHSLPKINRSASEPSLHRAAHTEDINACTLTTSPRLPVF

Sequence of Proto-oncogene tyrosine-protein kinase Src (P12931 2-536 limits assumed): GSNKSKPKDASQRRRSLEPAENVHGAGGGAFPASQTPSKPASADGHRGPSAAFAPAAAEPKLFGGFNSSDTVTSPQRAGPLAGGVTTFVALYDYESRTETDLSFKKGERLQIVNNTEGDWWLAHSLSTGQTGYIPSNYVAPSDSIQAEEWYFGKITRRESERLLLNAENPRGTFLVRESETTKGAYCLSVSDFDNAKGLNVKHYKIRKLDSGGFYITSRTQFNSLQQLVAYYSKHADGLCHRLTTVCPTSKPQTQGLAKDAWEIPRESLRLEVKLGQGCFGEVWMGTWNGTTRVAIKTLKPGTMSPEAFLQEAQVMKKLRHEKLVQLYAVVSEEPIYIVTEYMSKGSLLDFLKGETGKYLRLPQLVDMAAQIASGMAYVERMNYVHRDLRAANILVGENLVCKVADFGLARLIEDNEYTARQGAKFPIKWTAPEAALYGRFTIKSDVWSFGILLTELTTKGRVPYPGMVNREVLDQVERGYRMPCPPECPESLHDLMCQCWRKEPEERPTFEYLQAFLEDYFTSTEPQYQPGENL
Sequence of Tyrosine-protein kinase Lyn (P07948 whole entry): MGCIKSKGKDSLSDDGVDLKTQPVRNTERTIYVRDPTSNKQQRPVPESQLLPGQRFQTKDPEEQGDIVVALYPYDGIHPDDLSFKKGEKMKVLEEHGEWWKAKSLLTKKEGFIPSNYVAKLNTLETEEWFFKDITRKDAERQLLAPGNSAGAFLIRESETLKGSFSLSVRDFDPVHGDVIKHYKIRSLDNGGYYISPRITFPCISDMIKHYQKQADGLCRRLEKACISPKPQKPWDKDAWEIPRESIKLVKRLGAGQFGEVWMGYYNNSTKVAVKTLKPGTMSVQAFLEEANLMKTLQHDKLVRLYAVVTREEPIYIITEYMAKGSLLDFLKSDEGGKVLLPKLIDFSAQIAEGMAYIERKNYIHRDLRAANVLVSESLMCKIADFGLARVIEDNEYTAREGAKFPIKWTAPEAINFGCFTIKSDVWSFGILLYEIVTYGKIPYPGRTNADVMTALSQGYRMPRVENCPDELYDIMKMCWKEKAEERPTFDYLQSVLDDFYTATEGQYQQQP
Sequence of Mitogen-activated protein kinase 9 (P45984 whole entry): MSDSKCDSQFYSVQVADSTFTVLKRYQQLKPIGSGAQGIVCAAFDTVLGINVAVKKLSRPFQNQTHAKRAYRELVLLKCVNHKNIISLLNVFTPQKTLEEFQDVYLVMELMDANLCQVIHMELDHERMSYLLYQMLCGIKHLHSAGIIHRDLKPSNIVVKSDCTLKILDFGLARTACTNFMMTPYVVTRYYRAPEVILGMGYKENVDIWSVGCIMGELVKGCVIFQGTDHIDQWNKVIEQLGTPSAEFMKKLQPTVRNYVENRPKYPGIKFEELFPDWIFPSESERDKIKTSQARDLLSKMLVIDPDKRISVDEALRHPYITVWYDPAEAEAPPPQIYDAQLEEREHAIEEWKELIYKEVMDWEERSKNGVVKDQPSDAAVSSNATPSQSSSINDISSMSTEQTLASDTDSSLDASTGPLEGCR
Sequence of Tyrosine-protein kinase ABL1 (P00519 whole entry): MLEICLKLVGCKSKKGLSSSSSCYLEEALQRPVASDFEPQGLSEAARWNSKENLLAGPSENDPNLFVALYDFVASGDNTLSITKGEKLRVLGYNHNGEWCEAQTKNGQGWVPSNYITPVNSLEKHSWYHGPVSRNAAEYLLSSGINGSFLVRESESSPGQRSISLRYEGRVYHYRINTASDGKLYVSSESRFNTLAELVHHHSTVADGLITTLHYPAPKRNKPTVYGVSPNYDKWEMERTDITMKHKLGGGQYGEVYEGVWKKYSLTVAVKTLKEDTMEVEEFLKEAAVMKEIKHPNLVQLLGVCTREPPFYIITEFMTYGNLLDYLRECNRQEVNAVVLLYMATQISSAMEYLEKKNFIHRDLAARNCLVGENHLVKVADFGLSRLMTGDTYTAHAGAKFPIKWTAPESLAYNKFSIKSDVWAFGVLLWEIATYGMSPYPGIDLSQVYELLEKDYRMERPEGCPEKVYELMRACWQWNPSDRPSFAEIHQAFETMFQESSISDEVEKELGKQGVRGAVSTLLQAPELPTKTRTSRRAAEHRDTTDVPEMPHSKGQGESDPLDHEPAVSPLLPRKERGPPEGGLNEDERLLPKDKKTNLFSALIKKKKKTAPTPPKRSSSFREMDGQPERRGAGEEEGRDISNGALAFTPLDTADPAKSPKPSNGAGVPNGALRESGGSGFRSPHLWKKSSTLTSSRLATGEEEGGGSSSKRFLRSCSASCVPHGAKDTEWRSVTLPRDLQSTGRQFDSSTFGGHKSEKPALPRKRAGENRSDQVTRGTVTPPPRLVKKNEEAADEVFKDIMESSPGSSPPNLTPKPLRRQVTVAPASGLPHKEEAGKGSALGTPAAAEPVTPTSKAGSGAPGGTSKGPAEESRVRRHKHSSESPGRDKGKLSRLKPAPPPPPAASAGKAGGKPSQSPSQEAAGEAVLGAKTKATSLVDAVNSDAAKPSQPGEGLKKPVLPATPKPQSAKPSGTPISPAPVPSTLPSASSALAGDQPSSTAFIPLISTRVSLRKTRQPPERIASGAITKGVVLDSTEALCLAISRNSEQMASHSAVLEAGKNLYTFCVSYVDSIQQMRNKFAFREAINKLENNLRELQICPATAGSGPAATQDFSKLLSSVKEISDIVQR

| Compound | IC50 [1] [nM] | IC50 [4] [nM] | other results |
| --- | --- | --- | --- |
| Cc1ccc(-n2nc(C(C)(C)C)cc2NC(=O)Nc2ccc(-c3ccco3)c3ccccc23)cc1 | 390 |  |  |
| Cc1ccc(-n2nc(C(C)(C)C)cc2NC(=O)Nc2ccc(-c3cccc(CN4CCOCC4)c3)c3ccccc23)cc1 | 56 | 3900 |  |
| Cc1ccc(-n2nc(C(C)(C)C)cc2NC(=O)Nc2ccc(-c3cccc(N4CCOCC4)c3)c3ccccc23)cc1 | 1350 | > 15000 |  |
| Cc1ccc(-n2nc(C(C)(C)C)cc2NC(=O)Nc2ccc(-c3ccc(CN4CCN(C)CC4)cc3)c3ccccc23)cc1 | 46 | 3600 |  |
| Cc1ccc(-n2nc(C(C)(C)C)cc2NC(=O)Nc2ccc(-c3ccc(N4CCOCC4)cc3)c3ccccc23)cc1 | 470 | > 15000 |  |
| Cc1ccc(-n2nc(C(C)(C)C)cc2NC(=O)Nc2cccc3ccccc23)cc1 | 320 | > 15000 |  |
| Cc1ccc(-n2nc(C(C)(C)C)cc2NC(=O)Nc2ccc(OCCN3CCOCC3)c3ccccc23)cc1 [DORAMAPIMOD] |  |  | logD [10]: 4.3; inhibition in vivo at 10 mg/kg [5]: 63% |
| Cc1ccc(-n2nc(C(C)(C)C)cc2NC(=O)Nc2ccc(-c3ccc(CCN4CCOCC4)cc3)c3ccccc23)cc1 | 56 | 1700 |  |
| Cc1ccc(-n2nc(C(C)(C)C)cc2NC(=O)Nc2ccc(-c3ccccc3)c3ccccc23)cc1 | 1430 | > 15000 |  |
| Cc1ccc(-n2nc(C(C)(C)C)cc2NC(=O)Nc2ccc(-c3ccc(CN4CCOCC4)o3)c3ccccc23)cc1 | 70 | 6400 |  |
| Cc1ccc(-n2nc(C(C)(C)C)cc2NC(=O)Nc2ccc(-c3ccc(CN(C)C)cc3)c3ccccc23)cc1 | 104 | 9200 |  |

Continued, in another order:

| IC50 [1] [nM] | IC50 [4] [nM] | Compound | other results |
| --- | --- | --- | --- |
| 14 | 160 | Cc1ncc(-n2nc(C(C)(C)C)cc2NC(=O)Nc2ccc(-c3ccc(CN4CCOCC4)nc3)c3ccccc23)cn1 | inhibition in vivo at 3 mg/kg [2]: 85%; fraction unbound [3]: < 0.03; inhibition in vivo at 10 mg/kg [5]: 95% |
| 32 | 950 | Cn1nc(C(C)(C)C)cc1NC(=O)Nc1ccc(-c2ccc(CN3CCOCC3)nc2)c2ccccc12 | Activity [5]: inactive |
| 9 | 230 | Cc1ccc(-n2nc(C(C)(C)C)cc2NC(=O)Nc2ccc(-c3ccc(CN4CCOCC4)nc3)c3ccccc23)cc1 | Activity [2]: inactive; IC50 [6]: 1000 nM; IC50 [7]: 1000 nM; IC50 [8]: 1000 nM; IC50 [9]: 2 nM; logD [10]: 5.2; inhibition in vivo at 10 mg/kg [5]: 74%; IC50 [11]: 400 nM |
| 11 | 90 | Cn1cc(-n2nc(C(C)(C)C)cc2NC(=O)Nc2ccc(-c3ccc(CN4CCOCC4)nc3)c3ccccc23)cn1 | inhibition in vivo at 3 mg/kg [2]: 73% |
| 26 | 590 | Cc1ccc(-n2nc(C(C)(C)C)cc2NC(=O)Nc2ccc(-c3ccc(CN4CCOCC4)cn3)c3ccccc23)cc1 | logD [10]: 5.2 |
| 11 | 200 | Cc1ccc(-n2nc(C(C)(C)C)cc2NC(=O)Nc2ccc(-c3ccc(CN4CCOCC4)nc3)c3ccccc23)cn1 | inhibition in vivo at 3 mg/kg [2]: 50%; inhibition in vivo at 10 mg/kg [5]: 86% |
| 36 | 1100 | Cc1ccc(-n2nc(C(C)(C)C)cc2NC(=O)Nc2ccc(-c3ccc(CN4CCOCC4)cc3)c3ccccc23)cc1 |  |
